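Dose response: 5 concentrations. Exposure: 48 h. Format: 96-well plates. Endpoint: linear interpolation; highest concentration if not reached. TGI marks complete inhibition of growth.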 Where a SMILES comes first, the peptide text is derived from it. [ ]: non-standard residue; d: D form. The star is where a group is joined. ξ: configuration not given here. ξF = NC(Cc1ccccc1)C(=O)O; Cbz = O=C(OCc1ccccc1)*; Aib = CC(C)(N)C(=O)O
Assays:
Test in all cases: growth of human tumour cells (NCI), 48 h
[1] = tested on: BT-549 breast
[2] = tested on: OVCAR-3 ovarian
[3] = tested on: CCRF-CEM leukemia
[4] = tested on: DU-145 prostate
[5] = tested on: HCT-15 colon
[6] = tested on: KM12 colon
[7] = tested on: SK-OV-3 ovarian
[8] = tested on: UO-31 renal
[9] = tested on: MDA-N
[10] = tested on: T-47D breast
[11] = tested on: HS 578T breast
[12] = tested on: PC-3 prostate
[13] = tested on: HOP-92 NSCLC
[14] = tested on: SW-620 colon
[15] = tested on: RXF 393 renal
[16] = tested on: NCI-H23 lung
[17] = tested on: HCC-2998 colon
[18] = tested on: ACHN renal
[19] = tested on: A498 renal
[20] = tested on: 786-0 renal
[21] = tested on: SF-295 CNS
[22] = tested on: SNB-19 CNS
[23] = tested on: HCT-116 colon
[24] = tested on: A549 NSCLC
[25] = tested on: LOX IMVI melanoma
[26] = tested on: MDA-MB-231 breast
[27] = tested on: HL-60(TB) leukemia
[28] = tested on: SR leukemia
[29] = tested on: UACC-62 melanoma
[30] = tested on: NCI-H522 lung
[31] = tested on: MOLT-4 leukemia
[32] = tested on: U251 CNS
[33] = tested on: SN12C renal
[34] = tested on: CAKI-1 renal
[35] = tested on: COLO 205 colon
[36] = tested on: HT29 colon
[37] = tested on: SK-MEL-5 melanoma
[38] = tested on: SK-MEL-28 melanoma
[39] = tested on: OVCAR-4 ovarian
[40] = tested on: OVCAR-5 ovarian
[41] = tested on: NCI-H226 lung
[42] = tested on: TK-10 renal
[43] = tested on: MALME-3M melanoma
[44] = tested on: SF-539 CNS
[45] = tested on: HOP-62 NSCLC
[46] = tested on: MDA-MB-435
[47] = tested on: OVCAR-8 ovarian
[48] = tested on: UACC-257 melanoma
[49] = tested on: EKVX NSCLC
[50] = tested on: NCI-H460 lung
[51] = tested on: NCI/ADR-RES ovarian
[52] = tested on: SF-268 CNS
[53] = tested on: K-562 leukemia
[54] = tested on: MCF7 breast
[55] = tested on: M14 melanoma
[56] = tested on: IGROV1 ovarian
[57] = tested on: SNB-75 CNS
[58] = tested on: RPMI-8226 leukemia
[59] = tested on: SK-MEL-2 melanoma

With `COc1ccc(N(C(=O)Nc2ccc(Cl)c(Cl)c2)c2ccccc2)cc1` the TGI [1] was > 10 µM, the TGI [2] was > 10 µM and the TGI [3] was > 10 µM. The TGI [4] was > 10 µM, the TGI [5] was > 10 µM and the TGI [6] was > 10 µM. For the same molecule, the TGI [7] was > 10 µM, the TGI [8] was > 10 µM and the TGI [9] was > 10 µM. For the same molecule, the TGI [10] was > 10 µM, the TGI [11] was > 10 µM and the TGI [12] was > 10 µM. The TGI [13] was > 10 µM, the TGI [14] was > 10 µM and the TGI [15] was > 10 µM. For the same molecule, the TGI [16] was > 10 µM, the TGI [17] was > 10 µM and the TGI [18] was > 10 µM. For the same molecule, the TGI [19] was > 10 µM, the TGI [20] was > 10 µM and the TGI [21] was > 10 µM. For the same molecule, the TGI [22] was > 10 µM, the TGI [23] was > 10 µM and the TGI [24] was > 10 µM. The TGI [25] was > 10 µM, the TGI [26] was > 10 µM and the TGI [27] was > 10 µM. The TGI [28] was > 10 µM, the TGI [29] was > 10 µM and the TGI [30] was > 10 µM. For the same molecule, the TGI [31] was > 10 µM, the TGI [32] was > 10 µM and the TGI [33] was > 10 µM. The TGI [34] was > 10 µM, the TGI [35] was > 10 µM and the TGI [36] was > 10 µM. The TGI [37] was > 10 µM, the TGI [38] was > 10 µM and the TGI [39] was > 10 µM. The TGI [40] was > 10 µM, the TGI [41] was > 10 µM and the TGI [42] was > 10 µM. For the same molecule, the TGI [43] was > 10 µM, the TGI [44] was > 10 µM and the TGI [45] was > 10 µM. For the same molecule, the TGI [46] was > 10 µM, the TGI [47] was > 10 µM and the TGI [48] was > 10 µM. For the same molecule, the TGI [49] was > 10 µM, the TGI [50] was > 10 µM and the TGI [51] was > 10 µM. The TGI [52] was > 10 µM, the TGI [53] was > 10 µM and the TGI [54] was > 10 µM. For the same molecule, the TGI [55] was > 10 µM and the TGI [56] was > 10 µM.
`CC(C)(NC(=O)OCc1ccccc1)C(=O)NC(Cc1ccccc1)C(=O)O` (stereo not given) (Cbz-[Aib]-[ξF]-OH) was tested, and the TGI [57] was > 100 µM, the TGI [1] was > 100 µM and the TGI [2] was > 100 µM. The TGI [3] was > 100 µM, the TGI [4] was > 100 µM and the TGI [5] was > 100 µM. The TGI [6] was > 100 µM, the TGI [7] was > 100 µM and the TGI [8] was > 100 µM. The TGI [9] was > 100 µM, the TGI [10] was > 100 µM and the TGI [11] was > 100 µM. The TGI [12] was > 100 µM, the TGI [13] was > 100 µM and the TGI [14] was > 100 µM. For the same molecule, the TGI [16] was > 100 µM, the TGI [19] was > 100 µM and the TGI [20] was > 100 µM. For the same molecule, the TGI [21] was > 100 µM, the TGI [22] was > 100 µM and the TGI [23] was > 100 µM. The TGI [24] was > 100 µM, the TGI [25] was > 100 µM and the TGI [26] was > 100 µM. For the same molecule, the TGI [29] was > 100 µM, the TGI [30] was > 100 µM and the TGI [31] was > 100 µM. For the same molecule, the TGI [32] was > 100 µM, the TGI [33] was > 100 µM and the TGI [34] was > 100 µM. For the same molecule, the TGI [35] was > 100 µM, the TGI [36] was > 100 µM and the TGI [37] was > 100 µM. The TGI [38] was > 100 µM, the TGI [39] was > 100 µM and the TGI [40] was > 100 µM. For the same molecule, the TGI [41] was > 100 µM, the TGI [43] was > 100 µM and the TGI [44] was > 100 µM. The TGI [45] was > 100 µM, the TGI [46] was > 100 µM and the TGI [47] was > 100 µM. The TGI [48] was > 100 µM, the TGI [50] was > 100 µM and the TGI [51] was > 100 µM. The TGI [58] was > 100 µM, the TGI [53] was > 100 µM and the TGI [54] was > 100 µM. For the same molecule, the TGI [55] was > 100 µM, the TGI [56] was > 100 µM and the TGI [59] was > 100 µM.
In the case of `c1ccc2c(-c3cnc(-c4c[nH]c5ccccc45)cn3)c[nH]c2c1`, the TGI [57] was 94.4 µM, the TGI [1] was > 100 µM and the TGI [2] was > 100 µM. For the same molecule, the TGI [4] was > 100 µM, the TGI [5] was > 100 µM and the TGI [6] was > 100 µM. The TGI [7] was > 100 µM, the TGI [8] was > 100 µM and the TGI [9] was 50.3 µM. The TGI [10] was > 100 µM, the TGI [11] was > 100 µM and the TGI [12] was > 100 µM. For the same molecule, the TGI [13] was > 100 µM, the TGI [14] was 47.9 µM and the TGI [15] was > 100 µM. For the same molecule, the TGI [16] was > 100 µM, the TGI [17] was > 100 µM and the TGI [18] was > 100 µM. For the same molecule, the TGI [19] was > 100 µM, the TGI [20] was > 100 µM and the TGI [21] was 50.4 µM. For the same molecule, the TGI [22] was > 100 µM, the TGI [23] was 94.2 µM and the TGI [24] was > 100 µM. For the same molecule, the TGI [25] was 94.2 µM, the TGI [26] was > 100 µM and the TGI [28] was > 100 µM. The TGI [29] was > 100 µM, the TGI [30] was 64.2 µM and the TGI [32] was > 100 µM. The TGI [33] was > 100 µM, the TGI [34] was > 100 µM and the TGI [35] was > 100 µM. For the same molecule, the TGI [37] was > 100 µM, the TGI [38] was > 100 µM and the TGI [39] was > 100 µM. For the same molecule, the TGI [40] was > 100 µM, the TGI [42] was > 100 µM and the TGI [43] was > 100 µM. The TGI [44] was 73.7 µM, the TGI [45] was > 100 µM and the TGI [46] was 78.5 µM. For the same molecule, the TGI [47] was > 100 µM, the TGI [48] was > 100 µM and the TGI [49] was > 100 µM. For the same molecule, the TGI [50] was > 100 µM, the TGI [51] was > 100 µM and the TGI [58] was > 100 µM. For the same molecule, the TGI [52] was > 100 µM, the TGI [53] was > 100 µM and the TGI [54] was > 100 µM. For the same molecule, the TGI [55] was > 100 µM, the TGI [56] was > 100 µM and the TGI [59] was > 100 µM.
`Cc1c(C)c(C)c(-n2[nH]c(=O)n(C)c2=O)c(C)c1C` was tested, and the TGI [57] was > 100 µM, the TGI [1] was > 100 µM and the TGI [2] was > 100 µM. The TGI [3] was > 100 µM, the TGI [4] was > 100 µM and the TGI [5] was > 100 µM. For the same molecule, the TGI [6] was > 100 µM, the TGI [7] was > 100 µM and the TGI [8] was > 100 µM. For the same molecule, the TGI [9] was > 100 µM, the TGI [10] was > 100 µM and the TGI [11] was > 100 µM. For the same molecule, the TGI [12] was > 100 µM, the TGI [13] was > 100 µM and the TGI [14] was > 100 µM. The TGI [16] was > 100 µM, the TGI [18] was > 100 µM and the TGI [19] was > 100 µM. The TGI [20] was > 100 µM, the TGI [21] was > 100 µM and the TGI [22] was > 100 µM. For the same molecule, the TGI [23] was > 100 µM, the TGI [24] was > 100 µM and the TGI [25] was > 100 µM. The TGI [26] was > 100 µM, the TGI [27] was > 100 µM and the TGI [28] was > 100 µM. For the same molecule, the TGI [29] was > 100 µM, the TGI [31] was > 100 µM and the TGI [32] was > 100 µM. The TGI [33] was > 100 µM, the TGI [34] was > 100 µM and the TGI [35] was > 100 µM. For the same molecule, the TGI [36] was > 100 µM, the TGI [37] was > 100 µM and the TGI [38] was > 100 µM. The TGI [40] was > 100 µM, the TGI [41] was > 100 µM and the TGI [42] was > 100 µM. The TGI [44] was > 100 µM, the TGI [45] was > 100 µM and the TGI [46] was > 100 µM. For the same molecule, the TGI [47] was > 100 µM, the TGI [48] was > 100 µM and the TGI [49] was > 100 µM. The TGI [50] was > 100 µM, the TGI [51] was > 100 µM and the TGI [58] was > 100 µM. The TGI [52] was > 100 µM, the TGI [53] was > 100 µM and the TGI [54] was > 100 µM. The TGI [55] was > 100 µM, the TGI [56] was > 100 µM and the TGI [59] was > 100 µM.
